“Also recorded” adds a separate entry of the source.
Assays:
c-Kit+ cells = experiment: Colony formation assay in methylcellulose with hematopoietic cytokines; assay type: cell-based, mice; conditions: c-Kit+ cells treated 3 days ex vivo, then methylcellulose 10-14 days
Method: The primary cultures are shown.
Methylcellulose culture: Sorted GFP^+ BM cells were plated in individual wells of 6-well plates (Corning) containing 550 μl 1.0% methylcellulose (Stem Cell Technologies) as previously described (Trowbridge, et al., 2006, Nature. 441:518-522). The methylcellulose was supplemented with 1% penicillin/streptomycin (Gibco; Invitrogen), 50 ng/ml SCF, 10 ng/ml IL-3, 10 ng/ml IL-6, and 3 U/ml erythropoietin. Colonies were incubated at 37° C. in humidified incubators at 5% CO2. Colony formation was scored by counting all colonies of greater than 30 viable cells after 10-14 days of culture.
To test whether progenitor cells are increased by lithium treatment, colony formation assays were performed. […] To confirm these studies, bone marrow cells were isolated from lithium treated mice and cultured in methylcellulose with hematopoietic cytokines.

LSK cells = conditions: cited from earlier work

Row | Structure (SMILES) | hematopoietic colony number (c-Kit+ cells) | overall marrow cellularity (LSK cells (HSCs/HPCs); mice treated 2 weeks, vs control) | number of LSK cells in bone marrow (LSK cells (HSCs/HPCs); mice treated 2 weeks, vs control (NaCl for lithium), FCM) | bone marrow morphology / architecture (LSK cells (HSCs/HPCs); treated versus control marrows) | HSCs measured by long-term competitive repopulation assay (LSK cells; mice, Goessling et al. 2009) | increase in LSK cells (LSK cells; treated mice, Trowbridge et al. 2006)
1 | O=C1Nc2cc(Br)ccc2/C1=C1/Nc2ccccc2/C1=N\O [6BIO, 6-bromo-indirubin 3′-oxime] | marked increase; also recorded: increased | increased marrow cellularity; also recorded: parallel increase | pronounced increase; also recorded: increased | no observable change | increases HSCs | –
2 | COc1ccc(CNC(=O)Nc2ncc([N+](=O)[O-])s2)cc1 [AR-A014418] | marked increase; also recorded: increased | – | – | – | – | –
3 | Cc1c[nH]c(-c2cnc(NCCNc3ccc(C#N)cn3)nc2-c2ccc(Cl)cc2Cl)n1 [CHIR-911] | – | – | – | – | – | approximately 50%
